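How tested: cells in 96-well plates exposed to compound for 48 hours at five concentrations. GI50 marks 50% less growth. TGI: concentration producing complete growth inhibition.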
Key:
Assay in all cases: NCI anticancer screen, dose series, 48 h
HOP-92 NSCLC = system: HOP-92 NSCLC
SK-MEL-5 melanoma = system: SK-MEL-5 melanoma
HOP-62 NSCLC = system: HOP-62 NSCLC
COLO 205 colon = system: COLO 205 colon
SF-295 CNS = system: SF-295 CNS
ACHN renal = system: ACHN renal
HCT-15 colon = system: HCT-15 colon
RXF 393 renal = system: RXF 393 renal
T-47D breast = system: T-47D breast
MDA-MB-435 = system: MDA-MB-435

## COC(=O)C1=CO[C@@H](OC2CC(CO)C(O)C(O)C2O)[C@@H]2[C@@H](C)[C@@H](OC(=O)/C=C/c3ccccc3)[C@@H](O)[C@H]12 (some centres undefined) (tested in a mixture with another compound)
HOP-92 NSCLC
  TGI: > 100 µM
SK-MEL-5 melanoma
  TGI: > 100 µM
HOP-62 NSCLC
  TGI: > 100 µM
COLO 205 colon
  TGI: > 100 µM
SF-295 CNS
  TGI: > 100 µM
ACHN renal
  TGI: > 100 µM

## Nc1ncnc2c1ncn2C1OC(CSCC(F)(F)F)C(O)C1O (centres undefined)
HOP-92 NSCLC
  TGI: > 100 µM
SK-MEL-5 melanoma
  TGI: > 100 µM
HOP-62 NSCLC
  TGI: > 100 µM
COLO 205 colon
  TGI: > 100 µM
SF-295 CNS
  TGI: > 100 µM
HCT-15 colon
  TGI: > 100 µM
RXF 393 renal
  TGI: > 100 µM
ACHN renal
  TGI: > 100 µM

## CCSC1=NC2C(N(CC)C(=O)N2CC)N1/N=C/C=C/c1ccccc1[N+](=O)[O-] (centres undefined)
HOP-92 NSCLC
  GI50: 1.17 µM
  TGI: > 83.8 µM
SK-MEL-5 melanoma
  GI50: 112 nM
  TGI: 0.538 µM
HOP-62 NSCLC
  GI50: 0.313 µM
  TGI: > 100 µM
T-47D breast
  GI50: 2.59 µM
  TGI: > 82.1 µM
SF-295 CNS
  GI50: 61.2 nM
  TGI: > 100 µM
HCT-15 colon
  GI50: 204 nM
  TGI: > 100 µM
RXF 393 renal
  GI50: 33 nM
  TGI: > 100 µM
ACHN renal
  GI50: 0.121 µM
  TGI: > 100 µM

## COc1cc(C)ccc1C(=O)c1ccc(C)cc1OC
SK-MEL-5 melanoma
  GI50: 2990 nM
  TGI: 24.6 µM
HOP-62 NSCLC
  GI50: 3.11 µM
  TGI: > 100 µM
MDA-MB-435
  GI50: 0.295 µM
  TGI: 1.08 µM
T-47D breast
  GI50: 4.67 µM
  TGI: > 100 µM
COLO 205 colon
  GI50: 2.55 µM
  TGI: 9.34 µM
SF-295 CNS
  GI50: 1950 nM
  TGI: 43.4 µM
HCT-15 colon
  GI50: 1100 nM
  TGI: > 100 µM
RXF 393 renal
  GI50: 1660 nM
  TGI: 4.53 µM
ACHN renal
  GI50: 8.21 µM
  TGI: > 100 µM

## CN(C(=O)/C=C/c1ccccc1)C1C2CN3CCC(O2)C13 (centres undefined)
SK-MEL-5 melanoma
  TGI: > 100 µM
HOP-62 NSCLC
  TGI: > 100 µM
COLO 205 colon
  TGI: > 100 µM
SF-295 CNS
  TGI: > 100 µM
HCT-15 colon
  TGI: > 100 µM
RXF 393 renal
  TGI: > 100 µM
ACHN renal
  TGI: > 100 µM

## Oc1cccc(Nc2nc3ccccc3c3occc23)c1
HOP-92 NSCLC
  GI50: 9.07 µM
  TGI: 21.3 µM
SK-MEL-5 melanoma
  GI50: 14000 nM
  TGI: 27 µM
HOP-62 NSCLC
  GI50: 15.1 µM
  TGI: 33.5 µM
MDA-MB-435
  GI50: 3.04 µM
  TGI: 14.8 µM
T-47D breast
  TGI: 21.2 µM
COLO 205 colon
  GI50: 13.8 µM
  TGI: 26.7 µM
SF-295 CNS
  GI50: 2340 nM
  TGI: 11.7 µM
HCT-15 colon
  GI50: 15000 nM
  TGI: 33.8 µM
ACHN renal
  GI50: 7.69 µM
  TGI: 21.4 µM

## O=C1C=CC(=O)c2c1ccc1c3ccccc3n(Cc3ccc([N+](=O)[O-])cc3)c21
SK-MEL-5 melanoma
  TGI: > 100 µM
HOP-62 NSCLC
  TGI: > 100 µM
MDA-MB-435
  TGI: > 100 µM
T-47D breast
  TGI: > 100 µM
COLO 205 colon
  TGI: > 100 µM
SF-295 CNS
  TGI: > 100 µM
HCT-15 colon
  TGI: > 100 µM
RXF 393 renal
  TGI: > 100 µM
ACHN renal
  TGI: > 100 µM

## Cc1c(/C=N/NC(=O)c2ccccc2O)c(=O)n(-c2ccccc2)n1C
HOP-92 NSCLC
  TGI: > 100 µM
HOP-62 NSCLC
  TGI: > 100 µM
COLO 205 colon
  TGI: > 100 µM
SF-295 CNS
  TGI: > 100 µM
HCT-15 colon
  TGI: > 100 µM
RXF 393 renal
  TGI: > 100 µM
ACHN renal
  TGI: > 100 µM

## COC1=NCc2ccccc2-c2ccccc21
SK-MEL-5 melanoma
  TGI: > 100 µM
SF-295 CNS
  TGI: > 100 µM
HCT-15 colon
  TGI: > 100 µM
RXF 393 renal
  TGI: > 100 µM
ACHN renal
  TGI: > 100 µM

## O=c1ncccn1[C@@H]1O[C@H](CO)[C@H](O)C1O (some centres undefined)
HOP-92 NSCLC
  TGI: > 100 µM
SK-MEL-5 melanoma
  TGI: > 100 µM
HOP-62 NSCLC
  TGI: > 100 µM
COLO 205 colon
  TGI: > 100 µM
SF-295 CNS
  TGI: > 100 µM
HCT-15 colon
  TGI: > 100 µM
RXF 393 renal
  TGI: > 100 µM
ACHN renal
  TGI: > 100 µM

## COC(=O)/C(=N\NC(C)(C)C)C(C(=O)OC)C(=O)C(=O)Nc1cc(Cl)ccc1Cl (centres undefined)
HOP-92 NSCLC
  TGI: > 100 µM
SK-MEL-5 melanoma
  TGI: > 100 µM
HOP-62 NSCLC
  TGI: > 100 µM
COLO 205 colon
  TGI: > 100 µM
SF-295 CNS
  TGI: > 100 µM
HCT-15 colon
  TGI: > 100 µM
RXF 393 renal
  TGI: > 100 µM
ACHN renal
  TGI: > 100 µM

## C[N+](C)(C)CCC(=O)CC[N+](C)(C)C
SK-MEL-5 melanoma
  TGI: > 100 µM
HOP-62 NSCLC
  TGI: > 100 µM
COLO 205 colon
  TGI: 31.8 µM
SF-295 CNS
  TGI: 34.5 µM
HCT-15 colon
  TGI: 42.9 µM
RXF 393 renal
  TGI: 36 µM
ACHN renal
  TGI: 31.3 µM

## O=C(/C=C/c1ccccc1)Oc1cccc2cccnc12
HOP-92 NSCLC
  TGI: 81.6 µM
SK-MEL-5 melanoma
  TGI: 24 µM
HOP-62 NSCLC
  TGI: > 100 µM
COLO 205 colon
  TGI: 21.1 µM
SF-295 CNS
  TGI: > 100 µM
HCT-15 colon
  TGI: 26.2 µM
RXF 393 renal
  TGI: > 85.4 µM
ACHN renal
  TGI: > 100 µM

## CC(=O)OCc1c2ccccc2c(C)c2c1cc(F)c1ccccc12
HOP-92 NSCLC
  TGI: > 100 µM
SK-MEL-5 melanoma
  TGI: 69.6 µM
HOP-62 NSCLC
  TGI: > 100 µM
COLO 205 colon
  TGI: 36.4 µM
SF-295 CNS
  TGI: > 100 µM
RXF 393 renal
  TGI: 57.9 µM
ACHN renal
  TGI: 46.9 µM

## Cn1c(=O)nc2n(-c3ccc(O)cc3)c3ccccc3nc-2c1=O
HOP-92 NSCLC
  TGI: > 100 µM
SK-MEL-5 melanoma
  TGI: > 100 µM
HOP-62 NSCLC
  TGI: > 100 µM
COLO 205 colon
  TGI: > 100 µM
SF-295 CNS
  TGI: > 100 µM
HCT-15 colon
  TGI: > 100 µM
ACHN renal
  TGI: > 100 µM

## CCSCCCSCCSCC
SK-MEL-5 melanoma
  TGI: > 100 µM
HOP-62 NSCLC
  TGI: > 100 µM
MDA-MB-435
  TGI: > 100 µM
T-47D breast
  TGI: > 100 µM
COLO 205 colon
  TGI: > 100 µM
SF-295 CNS
  TGI: > 100 µM
HCT-15 colon
  TGI: > 100 µM

## COc1ccc(-c2noc(C(=O)O)c2-c2cc(OC)c(OC)c(OC)c2)cc1
HOP-92 NSCLC
  GI50: 3.54 µM
  TGI: > 100 µM
SK-MEL-5 melanoma
  GI50: 1300 nM
  TGI: > 100 µM
HOP-62 NSCLC
  GI50: 3.82 µM
  TGI: > 100 µM
MDA-MB-435
  GI50: 0.306 µM
  TGI: 1.1 µM
COLO 205 colon
  GI50: 1.95 µM
  TGI: 9.49 µM
SF-295 CNS
  GI50: 1570 nM
  TGI: > 100 µM
HCT-15 colon
  GI50: 881 nM
  TGI: > 100 µM
RXF 393 renal
  GI50: 1940 nM
  TGI: 6.56 µM
ACHN renal
  GI50: 7.42 µM
  TGI: > 100 µM

## C/C(=N/O)c1cccc(Nc2cc(-n3nnc4ccccc43)nc3ccccc23)c1
SK-MEL-5 melanoma
  GI50: 3780 nM
  TGI: 13.7 µM
HOP-62 NSCLC
  GI50: 20.5 µM
  TGI: 44.2 µM
MDA-MB-435
  GI50: 13.7 µM
  TGI: 37.1 µM
T-47D breast
  GI50: 34.6 µM
  TGI: > 85.3 µM
COLO 205 colon
  GI50: 32.4 µM
  TGI: > 73 µM
SF-295 CNS
  GI50: 5620 nM
  TGI: 19.8 µM
HCT-15 colon
  GI50: 11400 nM
  TGI: 32.8 µM
RXF 393 renal
  GI50: 14700 nM
  TGI: 43 µM
ACHN renal
  GI50: 14.2 µM
  TGI: 46.6 µM

## Cc1cc2c(C)nn(Cc3ccccc3)c2c(C(=O)O)c1C
HOP-92 NSCLC
  TGI: > 100 µM
HOP-62 NSCLC
  TGI: > 100 µM
COLO 205 colon
  TGI: > 100 µM
SF-295 CNS
  TGI: > 100 µM
HCT-15 colon
  TGI: > 100 µM
RXF 393 renal
  TGI: > 100 µM
ACHN renal
  TGI: > 100 µM

## CC1=C(C(=O)Nc2ccccc2C)C(c2ccc(Cl)cc2)C(C(=O)Nc2ccccc2C)=C(C)N1
HOP-92 NSCLC
  TGI: > 100 µM
SK-MEL-5 melanoma
  TGI: > 100 µM
HOP-62 NSCLC
  TGI: > 100 µM
COLO 205 colon
  TGI: > 100 µM
SF-295 CNS
  TGI: > 100 µM
HCT-15 colon
  TGI: > 100 µM
RXF 393 renal
  TGI: > 100 µM
ACHN renal
  TGI: > 100 µM

## O=C(O)c1nc(NCc2nc3cc(Cl)ccc3o2)n[nH]1
SK-MEL-5 melanoma
  GI50: > 100000 nM
  TGI: > 100 µM
HOP-62 NSCLC
  GI50: > 100 µM
  TGI: > 100 µM
MDA-MB-435
  GI50: > 100 µM
  TGI: > 100 µM
T-47D breast
  GI50: > 100 µM
  TGI: > 100 µM
COLO 205 colon
  GI50: > 100 µM
  TGI: > 100 µM
SF-295 CNS
  GI50: > 100000 nM
  TGI: > 100 µM
HCT-15 colon
  GI50: > 100000 nM
  TGI: > 100 µM
RXF 393 renal
  GI50: > 100000 nM
  TGI: > 100 µM
ACHN renal
  GI50: > 100 µM
  TGI: > 100 µM

Source: PubChem BioAssay (NCI)
